Measured values published in article PMC6934184, “Selective DNA-PKcs inhibition extends the therapeutic index of localized radiotherapy and chemotherapy” (The Journal of Clinical Investigation, 2019).

Target: T1, TAOK3 (JIK) (Homo sapiens, UniProt Q9H2K8)
T1 construct: purchased Thermo Fisher Scientific (Life Technologies) SelectScreen
Assay: SelectScreen LanthaScreen
Assay type: binding
Conditions: read-out: % displacement
Method in brief: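 Percent values come from Thermo SelectScreen profiling of NU5455, combining activity and binding assays. CSF1R was run in Z'LYTE format at Km app ATP, and CAMK1 in Adapta format with ATP listed at 10.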

T1 sequence (Q9H2K8 whole entry): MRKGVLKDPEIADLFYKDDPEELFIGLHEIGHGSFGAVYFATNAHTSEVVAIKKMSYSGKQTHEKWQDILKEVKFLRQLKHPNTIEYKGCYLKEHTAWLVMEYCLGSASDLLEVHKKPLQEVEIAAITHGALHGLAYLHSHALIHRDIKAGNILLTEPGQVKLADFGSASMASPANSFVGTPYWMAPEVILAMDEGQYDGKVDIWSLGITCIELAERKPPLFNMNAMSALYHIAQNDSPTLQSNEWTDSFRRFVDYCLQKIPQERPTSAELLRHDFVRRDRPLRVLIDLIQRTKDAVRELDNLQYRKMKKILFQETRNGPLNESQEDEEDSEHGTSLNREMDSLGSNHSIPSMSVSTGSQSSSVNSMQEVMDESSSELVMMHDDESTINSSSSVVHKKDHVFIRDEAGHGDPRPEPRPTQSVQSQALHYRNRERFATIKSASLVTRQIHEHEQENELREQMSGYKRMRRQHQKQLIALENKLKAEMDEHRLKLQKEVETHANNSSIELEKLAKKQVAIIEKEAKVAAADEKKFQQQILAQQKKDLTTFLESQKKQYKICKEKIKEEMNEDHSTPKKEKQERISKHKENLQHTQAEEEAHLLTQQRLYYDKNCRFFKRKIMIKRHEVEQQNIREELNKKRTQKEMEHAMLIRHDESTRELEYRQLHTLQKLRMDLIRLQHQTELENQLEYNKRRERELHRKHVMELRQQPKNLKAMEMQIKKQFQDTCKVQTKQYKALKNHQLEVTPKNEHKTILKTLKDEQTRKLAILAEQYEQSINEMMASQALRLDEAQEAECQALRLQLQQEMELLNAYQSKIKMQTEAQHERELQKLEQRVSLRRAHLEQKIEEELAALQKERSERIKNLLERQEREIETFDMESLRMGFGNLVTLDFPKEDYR

Compound: CN(C(=O)CN1CCOCC1)c1ccc2sc3c(-c4cccc5c(=O)cc(N6CC7CCC(C6)O7)oc45)cccc3c2c1 [NU5455]
- inhibition at 1 µM: 4.2%
